IC50 data for 27 compounds are collected here from patent US11142515B2, “Pyrazolyl-ureas as kinase inhibitors” (RESPIVERT LIMITED, priority 2014, dated 2021).

Assay [1] concerns ICAM-1 expression in BEAS2B cells. Kind of assay: Poly I:C-induced ICAM-1 expression in BEAS2B cells. The class given is cell-based. Particulars: Homo sapiens, BEAS-2B, read-out: PolyIC/ICAM1 IC50 (BEAS2B). As to the method: Poly I:C was used in these studies as a simple, RNA virus mimic. Poly I:C-Oligofectamine mixture (2% Oligofectamine±1 μg/mL Poly I:C, 25 μL; Life Technologies and Invivogen Ltd., San Diego, Calif., respectively) was transfected into BEAS2B cells (human bronchial epithelial cells, ATCC). Cells were pre-incubated with final concentrations of test compounds for 2 h and the level of ICAM-1 expression on the cell surface was determined by cell-based ELISA. At a time point 18 h after poly I:C transfection, cells were fixed with 4% formaldehyde in PBS (100 μL) and then endogenous peroxidase was quenched by the addition of washing buffer (100 μL, 0.05% Tween in PBS: PBS-Tween) containing 0.1% sodium azide and 1% hydrogen peroxide. Cells were washed with wash-buffer (3×200 μL). After blocking the wells with 5% milk in PBS-Tween (100 μL) for 1 h, the cells were incubated with anti-human ICAM-1 antibody (50 μL; Cell Signaling Technology, Danvers, Mass.) in 1% BSA PBS overnight at 4° C.
The cells were washed with PBS-Tween (3×200 μL) and incubated with the secondary antibody (100 μL; HRP-conjugated anti-rabbit IgG, Dako Ltd., Glostrup, Denmark). The cells were then incubated with of substrate (50 μL) for 2-20 min, followed by the addition of stop solution (50 μL, 1N H2SO4). The ICAM-1 signal was detected by reading the absorbance at 450 nm against a reference wavelength of 655 nm using a spectrophotometer. The cells ware then washed with PBS-Tween (3×200 μL) and total cell numbers in each well were determined by reading absorbance at 595 nm after Crystal Violet staining (50 μL of a 2% solution in PBS) and elution by 1% SDS solution (100 μL) in PBS. The measured OD 450-655 readings were corrected for cell number by dividing with the OD595 reading in each well. The inhibition of ICAM-1 expression was calculated at each concentration of test compound by comparison with vehicle control.

A further assay concerns the target T1, p38MAPKγ (MAPK12) (Homo sapiens, UniProt P53778).
T1 construct: purchased Life Technologies
T1 sequence (P53778 1-367): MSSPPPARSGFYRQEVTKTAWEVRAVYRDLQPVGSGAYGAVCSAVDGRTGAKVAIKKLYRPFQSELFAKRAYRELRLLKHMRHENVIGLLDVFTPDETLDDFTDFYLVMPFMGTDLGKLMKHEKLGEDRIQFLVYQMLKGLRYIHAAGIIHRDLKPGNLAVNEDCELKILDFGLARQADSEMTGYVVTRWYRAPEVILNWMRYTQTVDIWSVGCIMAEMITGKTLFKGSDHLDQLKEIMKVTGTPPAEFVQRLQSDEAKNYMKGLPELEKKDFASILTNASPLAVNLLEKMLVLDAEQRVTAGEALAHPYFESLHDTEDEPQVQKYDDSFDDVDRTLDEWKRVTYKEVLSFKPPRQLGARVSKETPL
The assay can be described thus: p38 MAPKγ enzyme inhibition (Z-LYTE FRET). The class given is biochemical. Particulars: Table 2A; read-out: IC50 Values for Enzyme Inhibition p38 MAPKγ. In outline: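 Enzyme (added at 800 ng/mL) was preincubated 2 h at RT with compound (solutions of 40 to 0.0012 μg/mL), then FRET peptide (8 μM) and ATP (400 μM), both as added, were reacted 1 h at RT. Protease development followed for 1 h; phosphorylation was read as the coumarin/fluorescein emission ratio.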

A further assay addresses T2, Hck (Homo sapiens, UniProt P08631).
T2 construct: purchased Life Technologies
The assay can be described thus: Hck enzyme inhibition (Z-LYTE FRET). The class given is biochemical. Particulars: Table 2A. As to the method:
The enzyme inhibitory activities of compounds disclosed herein were determined by FRET using synthetic peptides labelled with both donor and acceptor fluorophores (Z-LYTE, Life Technologies, Paisley, UK).
The relevant enzyme (1000 ng/mL, 1400 ng/mL or 2000 ng/mL respectively, 2.5 μL) was incubated with the test compound (either 40 μg/mL, 12 μg/mL, 4 μg/mL, 1.2 μg/mL, 0.4 μg/mL, 0.12 μg/mL, 0.04 μg/mL, 0.012 μg/mL, 0.004 μg/mL or 0.0012 μg/mL, 2.5 μL each) for 2 h at RT. The FRET peptides (8 μM, 2.5 μL), and appropriate ATP solutions (2.5 μL, 800 μM for c-Src, and 60 μM ATP for HCK and Syk) were then added to the enzyme/compound mixtures and incubated for 1 h at RT. Development reagent (protease, 5 μL) was added for 1 h prior to detection in a fluorescence microplate reader (EnVision, Perkin Elmer).
In all cases, the site-specific protease cleaves non-phosphorylated peptide only and eliminates the FRET signal. Phosphorylation levels of each reaction were calculated using the ratio of coumarin emission (donor) over fluorescein emission (acceptor), for which low ratios indicate high phosphorylation and high ratios indicate low phosphorylation levels.

T2 sequence (P08631 22-526): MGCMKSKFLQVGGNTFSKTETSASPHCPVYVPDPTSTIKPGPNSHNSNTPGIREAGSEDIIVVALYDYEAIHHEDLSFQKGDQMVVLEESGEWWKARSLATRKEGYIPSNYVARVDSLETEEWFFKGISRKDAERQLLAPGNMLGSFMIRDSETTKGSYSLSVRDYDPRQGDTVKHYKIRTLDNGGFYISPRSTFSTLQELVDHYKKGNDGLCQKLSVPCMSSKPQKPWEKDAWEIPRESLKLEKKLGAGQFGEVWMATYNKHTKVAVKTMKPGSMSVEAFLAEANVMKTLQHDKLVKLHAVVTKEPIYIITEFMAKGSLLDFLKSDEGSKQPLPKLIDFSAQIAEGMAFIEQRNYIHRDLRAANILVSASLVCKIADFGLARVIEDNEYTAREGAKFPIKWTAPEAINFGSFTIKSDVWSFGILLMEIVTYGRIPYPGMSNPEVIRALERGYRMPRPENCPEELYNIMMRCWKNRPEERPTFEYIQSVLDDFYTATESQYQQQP

With `COc1ccc(-n2nc(C(C)(C)C)cc2NC(=O)Nc2ccc(OCc3ccnc(Nc4cncc(C5CC5)n4)c3)c3ccccc23)cc1` [Example 22], the IC50 came to 19.6 nM in assay [1], 377 nM on p38MAPKγ (MAPK12) and 14 nM on Hck.
With `COc1ccc(-n2nc(C(C)(C)C)cc2NC(=O)Nc2ccc(OCc3ccnc(Nc4cnc(CO)cn4)c3)c3ccccc23)cc1` [Example 23], the IC50 amounted to 33.5 nM in assay [1], 209 nM on p38MAPKγ (MAPK12) and 13 nM on Hck.
Turning to `Cc1ccc(-n2nc(C(C)(C)C)cc2NC(=O)Nc2ccc(OCc3ccnc(Nc4cncc(C5CC5)n4)c3)c3ccccc23)s1` [Example 24], the IC50 in assay [1] was found to be 55.1 nM; on p38MAPKγ (MAPK12), 334 nM; at Hck, 18 nM.
The corresponding values for `CC(C)(C)c1cc(NC(=O)Nc2ccc(OCc3ccnc(Nc4cncc(C5CC5)n4)c3)c3ccccc23)n(-c2ccc(CO)cc2)n1` [Example 25] are 13.1 nM, 49 nM and 5 nM.
The corresponding values for `Cc1ccc(-n2nc(C(C)(C)C)cc2NC(=O)Nc2ccc(OCc3ccnc(Nc4cnc(CO)cn4)c3)c3ccccc23)s1` [Example 26] are 973 nM, 74 nM and 20 nM.
`Cc1cc(-n2nc(C(C)(C)C)cc2NC(=O)Nc2ccc(OCc3ccnc(Nc4cncc(C5CC5)n4)c3)c3ccccc23)cs1` [Example 27]: the IC50 was determined as 71.2 nM in assay [1], 376 nM at p38MAPKγ (MAPK12) and 13 nM on Hck.
For `CNC(=O)Cc1cncc(Nc2cc(COc3ccc(NC(=O)Nc4cc(C(C)(C)C)nn4-c4ccc(C)cc4)c4ccccc34)ccn2)n1` [Example 28] the same measures were 75.5 nM, 106 nM and 11 nM.
For `Cc1ccc(-n2nc(C(C)(C)C)cc2NC(=O)Nc2ccc(OCc3ccnc(Nc4cnc(CC(=O)N(C)C)cn4)c3)c3ccccc23)cc1` [Example 29] the same measures were 43 nM, 80 nM and 10 nM.
The corresponding values for `Cc1ccc(-n2nc(C(C)(C)C)cc2NC(=O)Nc2ccc(OCc3ccnc(Nc4cnc(CC(N)=O)cn4)c3)c3ccccc23)cc1` [Example 30] are 115 nM, 29 nM and 6 nM.
Turning to `Cc1ccc(-n2nc(C(C)(C)C)cc2NC(=O)Nc2ccc(OCc3ccnc(Nc4cncc(CC(N)=O)n4)c3)c3ccccc23)cc1` [Example 32], the IC50 stood at 65.6 nM in assay [1], 37 nM on p38MAPKγ (MAPK12) and 7 nM at Hck.
As to `CNC(=O)Cc1cnc(Nc2cc(COc3ccc(NC(=O)Nc4cc(C(C)(C)C)nn4-c4ccc(C)cc4)c4ccccc34)ccn2)cn1` [Example 33], the IC50 in assay [1] was found to be 150 nM; at p38MAPKγ (MAPK12), 53 nM; at Hck, 11 nM.
For `CC(C)(C)c1cc(NC(=O)Nc2ccc(OCc3ccnc(Nc4cncc(C5CC5)n4)c3)c3ccccc23)n(-c2ccc(O)cc2)n1` [Example 34], the IC50 in assay [1] was 41.1 nM; on p38MAPKγ (MAPK12), 274 nM; on Hck, 7 nM.
Turning to `Cc1ccc(-n2nc(C(C)(C)C)cc2NC(=O)Nc2ccc(OCc3ccnc(Nc4cnc(C(=O)N5CCOCC5)cn4)c3)c3ccccc23)cc1` [Example 35], the IC50 came to 113 nM in assay [1], 171 nM on p38MAPKγ (MAPK12) and 42 nM against Hck.
For `Cc1ccc(-n2nc(C(C)(C)C)cc2NC(=O)Nc2ccc(OCc3ccnc(Nc4cnc(C(=O)N5CCCC5)cn4)c3)c3ccccc23)cc1` [Example 36] the same measures were 188 nM, 1070 nM and 48 nM.
For `CCc1cnc(Nc2cc(COc3ccc(NC(=O)Nc4cc(C(C)(C)C)nn4-c4ccc(C)cc4)c4ccccc34)ccn2)cn1` [Example 37] the same measures were 611 nM, 569 nM and 142 nM.
`COc1ccc(-n2nc(C(C)(C)C)cc2NC(=O)Nc2ccc(OCc3ccnc(Nc4cnccn4)c3)c3ccccc23)cc1` [Example 38]: the IC50 is 75.5 nM in assay [1], greater than 16300 nM on p38MAPKγ (MAPK12) and 60 nM on Hck.
The corresponding values for `COc1ccc(-n2nc(C(C)(C)C)cc2NC(=O)Nc2ccc(OCc3ccnc(Nc4cnccn4)c3)c3ccccc23)cc1C` [Example 39] are 46.6 nM, 310 nM and 31 nM.
For `Cc1cccc(-n2nc(C(C)(C)C)cc2NC(=O)Nc2ccc(OCc3ccnc(Nc4cnccn4)c3)c3ccccc23)c1` [Example 40] the same measures were 637 nM, 79 nM and 23 nM.
For `CC(C)c1ccc(-n2nc(C(C)(C)C)cc2NC(=O)Nc2ccc(OCc3ccnc(Nc4cnccn4)c3)c3ccccc23)cc1` [Example 41] the same measures were greater than 1600 nM, greater than 16000 nM and 1430 nM.
In the case of `CCc1ccc(-n2nc(C(C)(C)C)cc2NC(=O)Nc2ccc(OCc3ccnc(Nc4cnccn4)c3)c3ccccc23)cc1` [Example 42], the values for the IC50 (in assay [1]; at p38MAPKγ (MAPK12); at Hck) were 197 nM, 521 nM and 89 nM, respectively.
As for `COCCNC(=O)c1cnc(Nc2cc(COc3ccc(NC(=O)Nc4cc(C(C)(C)C)nn4-c4ccc(C)s4)c4ccccc34)ccn2)cn1` [Example 43], the figures for the IC50 (in assay [1]; at p38MAPKγ (MAPK12); at Hck) were greater than 1420 nM, 394 nM and 53 nM, respectively.
The corresponding values for `COCCNC(=O)c1cnc(Nc2cc(COc3ccc(NC(=O)Nc4cc(C(C)(C)C)nn4-c4csc(C)c4)c4ccccc34)ccn2)cn1` [Example 44] are 1150 nM, 454 nM and 58 nM.
For `CC(C)(C)c1cc(NC(=O)Nc2ccc(OCc3ccnc(Nc4cnccn4)c3)c3ccccc23)n(-c2ccc(Cl)cc2)n1` [Example 45], the IC50 was 1440 nM in assay [1], greater than 16200 nM on p38MAPKγ (MAPK12) and 2240 nM at Hck.
For `COc1ccc(-n2nc(C(C)(C)C)cc2NC(=O)Nc2ccc(OCc3ccnc(Nc4cnccn4)c3)c3ccccc23)cc1Cl` [Example 46] the same measures were 212 nM, 1950 nM and 68 nM.
The corresponding values for `Cc1ccc(-n2nc(C(C)(C)C)cc2NC(=O)Nc2ccc(OCc3ccnc(Nc4cncc(C5CCC5)n4)c3)c3ccccc23)cc1` [Example 47] are 151 nM, 473 nM and 110 nM.
The corresponding values for `Cc1ccc(-n2nc(C(C)(C)C)cc2NC(=O)Nc2ccc(OCc3ccnc(Nc4cncc(C5CCCC5)n4)c3)c3ccccc23)cc1` [Example 48] are 92.5 nM, 1230 nM and 133 nM.
Consider `CC(C)(C)c1cc(NC(=O)Nc2ccc(OCc3ccnc(Nc4cnccn4)c3)c3ccccc23)n(-c2cccc(F)c2)n1` [Example 49], for which the results for the IC50 (in assay [1]; on p38MAPKγ (MAPK12); against Hck) were 474 nM, 129 nM and 115 nM, respectively.
